The text below walks through data of US10407431B2, “Compounds and compositions as toll-like receptor 7 agonists” (NOVARTIS AG, priority 2014, dated 2019).

Where only a bound is given, the exact number is not on record here.

The target in the assay is human TLR7 (Homo sapiens (Human), UniProt Q9NYK1). Put plainly: Reporter Gene Assay (HEK293 stably transfected with human TLR7 and NF-kB-driven luciferase reporter). It counts as cell-based. As to conditions: HEK293 cells stably transfected with human TLR7 and pNifty-Luciferase; 7 hours incubation; EC50 relative to the activity of resiquimod set to 100%. The protocol:
As a control assay, normal Hek293 transfected with pNifty-Luc were used. […] Bright-Glo™ Luciferase assay buffer and substrate were supplied by Promega #E263B and #E264B (assay substrate and buffer respectively). 384 well clear-bottom plates were supplied by Greiner bio-one (#789163-G) and were custom bar-coded plates.
Cells were plated at 25,000 cells/well in 384-well plates in a final volume of 50 μl of media. Cells were allowed to adhere to the plates after overnight (18 hours) culture at 37° C. and 5% CO2. Serially diluted experimental and positive control compounds were then dispensed to each well and incubated for 7 hours at 37° C. and 5% CO2. Cells stimulated with DMSO alone also serve as negative controls. After the incubation, 30 μl of the pre-mix assay buffer and substrate buffer were added to each well according to manufacturer's instructions. The luminescence signal was read on a CLIPR machine with an integration time of 20 seconds per plate.
Background: In a reporter assay the amount or activity of a reporter protein is the signal.

Chain of human TLR7 (Q9NYK1 27-1049): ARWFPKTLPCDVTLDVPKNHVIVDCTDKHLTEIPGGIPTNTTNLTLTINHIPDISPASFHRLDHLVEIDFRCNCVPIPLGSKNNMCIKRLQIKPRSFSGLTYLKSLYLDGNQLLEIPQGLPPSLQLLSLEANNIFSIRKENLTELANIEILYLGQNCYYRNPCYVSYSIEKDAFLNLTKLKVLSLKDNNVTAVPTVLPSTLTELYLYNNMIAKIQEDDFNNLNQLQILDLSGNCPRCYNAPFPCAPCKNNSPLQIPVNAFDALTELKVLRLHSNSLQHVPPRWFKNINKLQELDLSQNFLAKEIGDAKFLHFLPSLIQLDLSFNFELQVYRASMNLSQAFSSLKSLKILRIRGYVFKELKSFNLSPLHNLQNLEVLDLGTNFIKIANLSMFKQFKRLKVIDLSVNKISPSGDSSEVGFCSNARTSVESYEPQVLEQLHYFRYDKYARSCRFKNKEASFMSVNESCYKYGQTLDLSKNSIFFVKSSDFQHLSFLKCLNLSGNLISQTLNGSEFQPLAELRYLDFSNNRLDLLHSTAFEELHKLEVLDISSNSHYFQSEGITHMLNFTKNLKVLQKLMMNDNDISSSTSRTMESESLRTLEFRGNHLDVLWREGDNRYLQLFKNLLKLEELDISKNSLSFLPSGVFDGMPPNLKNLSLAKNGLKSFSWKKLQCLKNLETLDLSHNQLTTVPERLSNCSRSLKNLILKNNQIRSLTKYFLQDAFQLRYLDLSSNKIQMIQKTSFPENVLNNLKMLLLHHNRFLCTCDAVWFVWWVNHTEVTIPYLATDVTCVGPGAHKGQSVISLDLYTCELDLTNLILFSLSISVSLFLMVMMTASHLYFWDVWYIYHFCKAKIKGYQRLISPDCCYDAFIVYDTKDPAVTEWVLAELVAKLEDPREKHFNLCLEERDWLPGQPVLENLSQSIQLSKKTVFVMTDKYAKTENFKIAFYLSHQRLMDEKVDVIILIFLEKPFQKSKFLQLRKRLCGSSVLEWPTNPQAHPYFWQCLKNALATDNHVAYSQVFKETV

By EC50 is commonly meant the concentration at which the effect is half-maximal. For `CCCCCNc1nc(N)nc2ccn(Cc3ccc(CC(=O)OCC(=O)N4CCOCC4)cc3OC)c12` [Example 10, 2-morpholino-2-oxoethyl 2-(4-((2-amino-4-(pentylamino)-5H-pyrrolo[3,2-d]pyrimidin-5-yl)methyl)-3-methoxyphenyl)acetate], the half-maximal effective concentration (EC50) came out at 0.006 µM.
For the compound `CCCCCNc1nc(N)nc2ccn(Cc3ccc(CCC(=O)OCC(=O)N4CCOCC4)cc3OC)c12` [Example 11, 2-(morpholin-4-yl)-2-oxoethyl 3-(4-{[2-amino-4-(pentylamino)-5H-pyrrolo[3,2-d]pyrimidin-5-yl]methyl}-3-methoxyphenyl)propanoate], the concentration for a half-maximal effect (EC50) came out at 0.02 µM.
For `CCCC[C@@H](CO)Nc1nc(N)nc2ccn(Cc3ccc(CN4CCNCC4)cc3OC)c12` [Example 33, (S)-2-((2-amino-5-(2-methoxy-4-(piperazin-1-ylmethyl)benzyl)-5H-pyrrolo[3,2-d]pyrimidin-4-yl)amino)hexan-1-ol] the value was 0.007 µM; for `CCCCCNc1nc(N)nc2ccn(Cc3cc(N)ccc3OC)c12` [Example 34, 5-(5-amino-2-methoxybenzyl)-N4-pentyl-5H-pyrrolo[3,2-d]pyrimidine-2,4-diamine], 0.001 µM; for `CCCCCNc1nc(N)nc2ccn(Cc3cc(OCC(=O)OCCN4CCNCC4)ccc3OC)c12` [Example 27, 2-(piperazin-1-yl)ethyl 2-(3-{[2-amino-4-(pentylamino)-5H-pyrrolo[3,2-d]pyrimidin-5-yl]methyl}-4-methoxyphenoxy)acetate], 0.5 µM.
On to `CCCC[C@@H](CO)Nc1nc(N)nc2ccn(Cc3cc(CN4CCNCC4)ccc3OC)c12` [Example 30, (S)-2-((2-amino-5-(2-methoxy-5-(piperazin-1-ylmethyl)benzyl)-5H-pyrrolo[3,2-d]pyrimidin-4-yl)amino)hexan-1-ol], for which the response was half-maximal at 0.08 µM (EC50).
In the case of `CCCCCNc1nc(N)nc2ccn(Cc3cc(OCC(=O)OCCN(C)C)ccc3OC)c12` [Example 26, 2-(dimethylamino)ethyl 2-(3-{[2-amino-4-(pentylamino)-5H-pyrrolo[3,2-d]pyrimidin-5-yl]methyl}-4-methoxyphenoxy)acetate], the EC50 was determined as 0.3 µM.
With `CCCCCNc1nc(N)nc2ccn(Cc3cc(CN4CCNCC4)ccc3OC)c12` [Example 31, 5-(2-methoxy-5-(piperazin-1-ylmethyl)benzyl)-N4-pentyl-5H-pyrrolo[3,2-d]pyrimidine-2,4-diamine] the figure was 0.02 µM.
On to `CCCCCNc1nc(N)nc2ccn(Cc3ccc(C(=O)OCCOCCN(C)C)cc3OC)c12` [Example 3, 2-(2-(dimethylamino)ethoxy)ethyl 4-((2-amino-4-(pentylamino)-5H-pyrrolo[3,2-d]pyrimidin-5-yl)methyl)-3-methoxybenzoate], for which the midpoint of the response, the EC50, lay at 0.02 µM.
For `CCCCCNc1nc(N)nc2ccn(Cc3ccc(CC(=O)OCCN4CCOCC4)cc3OC)c12` [Example 24, 2-(morpholin-4-yl)ethyl 2-(4-{[2-amino-4-(pentylamino)-5H-pyrrolo[3,2-d]pyrimidin-5-yl]methyl}-3-methoxyphenyl)acetate] the value was 0.008 µM; for `CCCCCNc1nc(N)nc2ccn(Cc3cc(CCC(=O)OCC)ccc3OC)c12` [Example 6, ethyl 3-(3-((2-amino-4-(pentylamino)-5H-pyrrolo[3,2-d]pyrimidin-5-yl)methyl)-4-methoxyphenyl)propanoate], 0.03 µM.
`CCCC[C@@H](CO)Nc1nc(N)nc2ccn(Cc3cc(CC(=O)OCC(=O)N4CCOCC4)ccc3OC)c12` [Example 14, (S)-2-morpholino-2-oxoethyl 2-(3-((2-amino-4-((1-hydroxyhexan-2-yl)amino)-5H-pyrrolo[3,2-d]pyrimidin-5-yl)methyl)-4-methoxyphenyl)acetate] came in with an EC50 of 0.01 µM.
As to `CCCCCNc1nc(N)nc2ccn(Cc3ccc(CC(=O)OCCCCN(C)C)cc3OC)c12` [Example 23, 4-(dimethylamino)butyl 2-(4-{[2-amino-4-(pentylamino)-5H-pyrrolo[3,2-d]pyrimidin-5-yl]methyl}-3-methoxyphenyl)acetate], it took 0.007 µM to reach a half-maximal effect (EC50).
The compound `CCCC[C@@H](CO)Nc1nc(N)nc2ccn(Cc3ccc(CC(=O)OCC(=O)N4CCOCC4)cc3OC)c12` [Example 13, (S)-2-morpholino-2-oxoethyl 2-(4-((2-amino-4-((1-hydroxyhexan-2-yl)amino)-5H-pyrrolo[3,2-d]pyrimidin-5-yl)methyl)-3-methoxyphenyl)acetate] came in with an EC50 of 0.01 µM.
Consider `CCCC[C@@H](CO)Nc1nc(N)nc2ccn(Cc3cc(CCC(=O)OCC(=O)N4CCOCC4)ccc3OC)c12` [Example 12, (S)-2-morpholino-2-oxoethyl 3-(3-((2-amino-4-((1-hydroxyhexan-2-yl)amino)-5H-pyrrolo[3,2-d]pyrimidin-5-yl)methyl)-4-methoxyphenyl)propanoate], for which the EC50 was found to be 0.03 µM.
The compound `CCCCCNc1nc(N)nc2ccn(Cc3cc(C(=O)OC)ccc3OC)c12` [Example 4, methyl 3-((2-amino-4-(pentylamino)-5H-pyrrolo[3,2-d]pyrimidin-5-yl)methyl)-4-methoxybenzoate] returned an EC50 of less than 0.005 µM.
`CCCCCNc1nc(N)nc2ccn(Cc3cc(CCC(=O)OCC(=O)N4CCOCC4)ccc3OC)c12` [Example 17, 2-(morpholin-4-yl)-2-oxoethyl 3-(3-{[2-amino-4-(pentylamino)-5H-pyrrolo[3,2-d]pyrimidin-5-yl]methyl}-4-methoxyphenyl)propanoate] came in with an EC50 of 0.05 µM.
For `CCCCCNc1nc(N)nc2ccn(Cc3ccc(CC(=O)OCC(=O)N(CCC)CCC)cc3OC)c12` [Example 19, 2-(dipropylcarbamoyl)methyl 2-(4-{[2-amino-4-(pentylamino)-5H-pyrrolo[3,2-d]pyrimidin-5-yl]methyl}-3-methoxyphenyl)acetate] the value was 0.2 µM; for `CCCCCNc1nc(N)nc2ccn(Cc3cc(CC(=O)OC)ccc3OC)c12` [Example 5, methyl 2-(3-((2-amino-4-(pentylamino)-5H-pyrrolo[3,2-d]pyrimidin-5-yl)methyl)-4-methoxyphenyl)acetate], 0.01 µM.
`CCCCCNc1nc(N)nc2ccn(Cc3ccc(CC(=O)OCCN4CCNCC4)cc3OC)c12` [Example 25, 2-(piperazin-1-yl)ethyl 2-(4-{[2-amino-4-(pentylamino)-5H-pyrrolo[3,2-d]pyrimidin-5-yl]methyl}-3-methoxyphenyl)acetate] returned an EC50 of 0.03 µM.
For `CCCCCNc1nc(N)nc2ccn(Cc3ccc(CC(=O)OCC(=O)N(C)C)cc3OC)c12` [Example 20, 2-(dimethylamino)-2-oxoethyl 2-(4-((2-amino-4-(pentylamino)-5H-pyrrolo[3,2-d]pyrimidin-5-yl)methyl)-3-methoxyphenyl)acetate] the value was 0.08 µM; for `CCCC[C@@H](CO)Nc1nc(N)nc2ccn(Cc3ccc(CCC(=O)OCC(=O)N4CCOCC4)cc3OC)c12` [Example 15, (S)-2-morpholino-2-oxoethyl 3-(4-((2-amino-4-((1-hydroxyhexan-2-yl)amino)-5H-pyrrolo[3,2-d]pyrimidin-5-yl)methyl)-3-methoxyphenyl)propanoate], 0.02 µM.
In turn, `CCCCCNc1nc(N)nc2ccn(Cc3ccc(CN4CCNCC4)cc3OC)c12` [Example 32, 5-(2-methoxy-4-(piperazin-1-ylmethyl)benzyl)-N4-pentyl-5H-pyrrolo[3,2-d]pyrimidine-2,4-diamine] gave an EC50 of less than 0.005 µM.
In turn, `CCCCCNc1nc(N)nc2ccn(Cc3cc(/C=C/C(=O)OCC(=O)N4CCOCC4)ccc3OC)c12` [Example 16, 2-(morpholin-4-yl)-2-oxoethyl (2E)-3-(3-{[2-amino-4-(pentylamino)-5H-pyrrolo[3,2-d]pyrimidin-5-yl]methyl}-4-methoxyphenyl)prop-2-enoate] came in with an EC50 of less than 0.005 µM.
The compound `CCCCCNc1nc(N)nc2ccn(Cc3ccc(CC(=O)OCC(=O)OCc4ccccc4)cc3OC)c12` [Example 18, 2-(benzyloxy)-2-oxoethyl 2-(4-{[2-amino-4-(pentylamino)-5H-pyrrolo[3,2-d]pyrimidin-5-yl]methyl}-3-methoxyphenyl)acetate] displayed an EC50 of 0.2 µM.
With `CCCCCNc1nc(N)nc2ccn(Cc3ccc(C(=O)OC)cc3OC)c12` [Example 1, methyl 4-((2-amino-4-(pentylamino)-5H-pyrrolo[3,2-d]pyrimidin-5-yl)methyl)-3-methoxybenzoate], the EC50 was 0.01 µM.
Take `CCCCCNc1nc(N)nc2ccn(Cc3ccc(C(=O)OCCN(C)C)cc3OC)c12` [Example 2, 2-(dimethylamino)ethyl 4-((2-amino-4-(pentylamino)-5H-pyrrolo[3,2-d]pyrimidin-5-yl)methyl)-3-methoxybenzoate]: the EC50 is less than 0.005 µM.
With `CCCCCNc1nc(N)nc2ccn(Cc3cc(OCC(=O)OCCN4CCN(C)CC4)ccc3OC)c12` [Example 29, 2-(4-methylpiperazin-1-yl)ethyl 2-(3-{[2-amino-4-(pentylamino)-5H-pyrrolo[3,2-d]pyrimidin-5-yl]methyl}-4-methoxyphenoxy)acetate] the figure was 0.2 µM; with `CCCCCNc1nc(N)nc2ccn(Cc3cc(CC(=O)OCC(=O)N4CCOCC4)ccc3OC)c12` [Example 9, 2-morpholino-2-oxoethyl 2-(3-((2-amino-4-(pentylamino)-5H-pyrrolo[3,2-d]pyrimidin-5-yl)methyl)-4-methoxyphenyl)acetate], 0.01 µM.
For `CCCCCNc1nc(N)nc2ccn(Cc3ccc(CC(=O)OCCN4CCN(C)CC4)cc3OC)c12` [Example 21, 2-(4-methylpiperazin-1-yl)ethyl 2-(4-{[2-amino-4-(pentylamino)-5H-pyrrolo[3,2-d]pyrimidin-5-yl]methyl}-3-methoxyphenyl)acetate] the value was less than 0.005 µM.
